# Reference: patent US12685755B2, “Methods and compositions for treating mucosal tissue disorders” (The University of North Carolina at Chapel Hill, priority 2012, dated 2026)
# Key:
# [1] = test system: Pseudomonas aeruginosa strain PAO1; experiment: aerobic growth of PAO1 in broth in ambient atmosphere; type: cell-based; conditions: for effects on aerobic growth attained by 17 h, single components: each alone: KNO2 to 3.5 mM, glutathione to 5 mM, ascorbate to 2.1 mM
# Source text: (§1) FIG. 1. […] Pseudomonas aeruginosa strain PAO1 is capable of growing in the absence of oxygen using nitrate for respiration. […] The studies presented in FIG. 1 examine whether glutathione influences the growth of PAO1 either in the presence or absence of nitrate under either ambient (aerobic) or anaerobic atmospheres.
# (§2) FIG. 2. […] To test this possibility, reduced glutathione was titrated vs. increasing concentrations of KNO2 in either trypticase soy broth (TSB) in ambient atmosphere or in trypticase soy broth with nitrate (TSBN) (1% KNO3) under anaerobic atmosphere.
# (§3) FIG. 3. […] These studies examined the question of the importance of the redox state of glutathione to its contributions to the inhibition by RNI and to the blocking of the glucose oxidase antimicrobial effects. Glutathione in either its reduced (GSH) or oxidized (GSSG) form was titrated in the presence or absence of 14 mM nitrite in TSB and PAO1 was grown in ambient atmosphere.
# FIG. 6. […] If NO reacts with glutathione to generate nitrosoglutathione then gassing with NO in the presence of glutathione may be expected to yield greater activity than gassing first and then adding glutathione. To test this effect, LB broth was either pre-gassed with NO followed by titration of GSH or the LB broth aliquots containing various concentrations of GSH were gassed. Titration of NO was accomplished by varying the gassing times of the LB broth.
# (§4) FIG. 7. […] The next series of experiments was designed to determine if there were any influences of ascorbate on glutathione potentiation of the growth inhibition of the RNI (FIGS. 7, 8 and 9).
# FIG. 8. […] Ascorbate was titrated over a checkerboard titration of glutathione and KNO2 in LB broth.
# FIG. 9. […] In these experiments, varying concentrations of NO were achieved again by varying the gassing time (10, 15, 30 or 45 min) with 2.3% NO in N2 either in the presence (NO-GSH) or absence (NO-LB) of varying concentrations of glutathione. Glutathione was added to NO-LB in varying concentrations (NO-LB+GSH).
# [2] = biological target: CB2 receptor (Homo sapiens, UniProt P34972); conditions: cited from earlier work
# Sequence of CB2 receptor (P34972 whole entry): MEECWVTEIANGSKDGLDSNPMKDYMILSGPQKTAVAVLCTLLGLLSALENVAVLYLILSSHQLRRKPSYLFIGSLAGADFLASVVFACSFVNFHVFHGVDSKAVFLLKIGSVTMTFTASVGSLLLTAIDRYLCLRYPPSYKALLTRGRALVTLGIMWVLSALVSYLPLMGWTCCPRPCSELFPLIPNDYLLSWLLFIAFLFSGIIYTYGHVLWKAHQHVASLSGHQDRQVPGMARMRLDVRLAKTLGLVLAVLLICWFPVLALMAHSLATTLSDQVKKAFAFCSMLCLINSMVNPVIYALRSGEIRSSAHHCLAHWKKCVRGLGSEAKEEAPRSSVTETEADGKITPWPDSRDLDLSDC
# [3] = test system: Pseudomonas aeruginosa strain PAO1; experiment: glucose oxidase / H2O2 mediated growth inhibition of PAO1; type: cell-based
# Source text: as §2, §3
# [4] = test system: Pseudomonas aeruginosa strain PAO1; experiment: nitrate dependent growth of PAO1 under anaerobic atmosphere; type: cell-based; conditions: for nitrate dependent growth: LB broth with nitrate, anaerobic atmosphere; for inhibition of growth: anaerobic
# Experimental: as §1, with “atmospheres. […]” for “atmospheres.”
# FIG. 4. […] To examine this possibility, S-nitrosoglutathione (Sigma) was tested for influence on growth of PAO1 in TSBN (1% KNO3) with and without 6.4 mM glutathione.
# as §4
# [5] = test system: PAO1; conditions: 5% CO2; increasing concentrations of NaHCO3
# Experimental: (§5) FIGS. 10A-B. Influences of bicarbonate on alginate production by different strains of P. aeruginosa under a 5% CO2 atmosphere. Alginate production of selected strains of P. aeruginosa surface grown in a CO2 incubator was quantitatively determined by a colorimetric assay. […] These three strains were then tested for their ability to make alginate under an atmosphere of 5% CO2 with increasing concentrations of NaHCO3(FIG. 10B).
# [6] = test system: P. aeruginosa clinical isolate (C3873M)
# Experimental: as §5
# [7] = test system: Pa Mucoid laboratory derived from PAO1; conditions: 5% CO2; increasing concentrations of NaHCO3
# Experimental: as §5
# [8] = absence of NO, glutathione and ascorbate concentrations and combinations of the study
smiles,measurement,setting,value
"[N]=O [NO, nitric oxide, reference compound]",inhibition of aerobic growth by NO,"[1]; LB broth gassed with NO, absence of glutathione",no discernible inhibition
"C=C1CC[C@@H]2[C@@H](C1)c1c(OC)cc(C(C)(C)CCCCCC)cc1OC2(C)C [L-759,656]",CB1/CB2 binding ratio,[2],> 1000
"N[C@@H](CCC(=O)N[C@@H](CS)C(=O)NCC(=O)O)C(=O)O [glutathione, N—(N-L-γ-glutamyl-L-cysteinyl)glycine]",growth inhibition of PAO1 by exogenous H2O2,[3]; 14 mM GSH,blocked
same,protection from inhibition with the glucose oxidase system,"[3]; TSB, ambient atmosphere",protected PAO1 from inhibition
same,protection from the growth inhibiting effects of glucose oxidase,[3]; increasing concentration of GSH,protected PAO1
same,"inhibition of aerobic growth, glutathione with NO","[1]; 2.5 mM glutathione, NO titrated by gassing time, LB broth",dose dependent NO inhibition of growth
same,inhibition of aerobic growth,"[1]; 5 mM glutathione and ascorbate, presence versus absence of nitrate",greater inhibition of aerobic growth
same,"inhibition of aerobic growth, glutathione with NO","[1]; 5 mM glutathione, lowest concentration of NO (10 minutes gassing time), LB broth",total inhibition
same,"inhibition of aerobic growth, glutathione with NO","[1]; 5 mM glutathione, lowest concentration of NO, regardless of order of addition",total inhibition of growth
same,"inhibition of growth, glutathione with nitrite","[1]; 6.4 mM GSH and 14 mM KNO2, TSB, ambient atmosphere",significant inhibition
same,growth yield at 14 h,"[1]; 7.5 mM glutathione, LB broth with or without 1% nitrate, aerobic",reduced growth yield
same,"inhibition of growth, glutathione with nitrite","[1]; 12.8 mM GSH and 7 mM KNO2, TSB, ambient atmosphere",significant inhibition
same,inhibition of PAO1 growth in the presence of nitrite,"[1]; 14 mM nitrite, TSB, ambient atmosphere, molar equivalency",inhibition of PAO1 growth
same,enhancement of NO gas inhibition of aerobic growth,"[1]; 0.5 relative concentration of NO, TSB",dose dependent enhancement of inhibition
same,inhibitory effects on aerobic growth,[1]; [8],no inhibitory effects
same,"effects on aerobic growth attained by 17 h, single components",[1]; LB broth,"neither KNO2 to 3.5 mM, glutathione to 5 mM nor ascorbate to 2.1 mM had discernible effects"
same,aerobic growth attained,"[1]; glutathione titrated, LB broth",dose dependent reduction in the aerobic growth
same,lowest glutathione concentration at which synergistic inhibition was evident,"[1]; in the presence of 1.75 mM KNO2, ascorbate titrated, LB broth",2.5 mM
same,enhancement of NO gas inhibition of aerobic growth,"[1]; lower NO concentrations, TSB",not at lower NO concentrations
same,aerobic growth of P. aeruginosa,[1]; nitrite and nitric oxide in the presence of GSH,inhibit the aerobic growth of P. aeruginosa
same,growth yield,"[1]; reduced glutathione titrated, TSB, absence of nitrite","slight, but significant, concentration-dependent increase in growth yield"
same,growth in an anaerobic atmosphere with nitrate,"[4]; 2.5 mM and lower concentrations of glutathione, absence of ascorbate",permitted growth
same,nitrate dependent growth,[4]; 2.5 mM glutathione or less,no discernible effects
same,nitrate dependent growth,[4]; 5 mM glutathione,total inhibition
same,"effect on GSNO inhibition of growth, bacterial density (A=650 nm) at 18 h","[4]; 6.4 mM glutathione with GSNO, TSBN (1% KNO3)",significantly enhanced
same,nitrate dependent growth,[4]; 7.5 mM glutathione,total inhibition
same,inhibition of growth,"[4]; increasing GSH with nitrite concentrations not totally inhibitory by themselves, TSBN",further inhibition
same,"use of nitrate, nitrite or nitric oxide for growth under anaerobic conditions","[4]; preliminary data, P. aeruginosa","limit the ability of P. aeruginosa to utilize nitrate, nitrite, or nitric oxide to grow under anaerobic conditions"
same,anti-pseudomonal activities of GSNO and other nitric oxide donors,[4]; presence of exogenous glutathione,potentiated
"O=C1O[C@H]([C@@H](O)CO)C(O)=C1O [ascorbate, ascorbic acid]",inhibition of growth in ambient atmosphere,"[1]; 0.2 mM ascorbate with 7.5 mM glutathione, presence of nitrate",profound inhibition of growth
same,inhibition of aerobic growth,"[1]; 2.1 mM ascorbate with 7.5 mM glutathione, absence of nitrate",total inhibition
same,inhibitory effects on aerobic growth,[1]; [8],no inhibitory effects
same,effect on inhibition by KNO2 with glutathione,"[1]; ascorbate added to KNO2 and glutathione, LB broth",enhanced
same,effect on aerobic growth attained by 17 h,"[1]; ascorbate added to either glutathione or KNO2, LB broth",no discernible effect
same,enhancement of inhibition of aerobic growth,"[1]; ascorbate titrated, 15 min delivery of NO, 2.5 mM GSH",concentration dependent ascorbate enhancement of inhibition
same,"effects on aerobic growth attained by 17 h, single components",[1]; LB broth,"neither KNO2 to 3.5 mM, glutathione to 5 mM nor ascorbate to 2.1 mM had discernible effects"
same,effect on glutathione reduction of aerobic growth,"[1]; increasing concentrations of ascorbic acid added to glutathione, LB broth",further enhanced
same,decrease in nitrate-dependent growth,[4]; increasing ascorbate in the presence of 2.5 mM glutathione,more pronounced
same,nitrate-dependent growth,"[4]; increasing concentrations of ascorbate, absence of glutathione",dose dependent decrease in nitrate-dependent growth
"O=N[O-].[K+] [nitrite, KNO2, reference compound]",inhibitory effects on aerobic growth,"[1]; KNO2 in the presence of glutathione, LB broth",concentration dependent inhibitory effects
same,"effects on aerobic growth attained by 17 h, single components",[1]; LB broth,"neither KNO2 to 3.5 mM, glutathione to 5 mM nor ascorbate to 2.1 mM had discernible effects"
same,lowest KNO2 concentration at which synergistic inhibition was evident,"[1]; in the presence of 5 mM glutathione, ascorbate titrated, LB broth",0.875 mM
same,inhibition of aerobic growth,"[1]; nitrite to 14 mM, absence of glutathione, TSB",no discernible inhibition
same,inhibition of growth,"[4]; KNO2 added, TSBN (1% KNO3), absence of glutathione",significant inhibition
"N[C@@H](CCC(=O)N[C@@H](CSN=O)C(=O)NCC(=O)O)C(=O)O [GSNO, S-nitrosoglutathione, reference compound]","inhibition of growth, bacterial density (A=650 nm) at 18 h","[4]; GSNO titrated, TSBN (1% KNO3), without glutathione",concentration dependent inhibition
"O=C(O)O [bicarbonate, NaHCO3]",alginate production,[5],failed to make alginate
same,alginate production,"[6]; 5% CO2, increasing concentrations of NaHCO3",inhibited
same,alginate production associated with the mucoidy phenotype of P. aeruginosa,[6]; preliminary studies,inhibits the alginate production
same,alginate production,[7],significantly enhanced
